Reference: patent US9464121B2, “Compositions and methods for treating erectile dysfunction” (priority 2007, dated 2016)
Entries after “also recorded” stand apart in the source; their conditions may differ. Where a name gives a salt, the structure may show the parent alone.

Experiments:
corpus cavernosum [1] = assay: In vitro corpus cavernosum assay for smooth muscle relaxation (isolated organ chamber, phenylephrine-contracted tissue); assay type: cell-based, Wistar adult male rats
Procedure: The effect of polypeptides on corpus cavernosum contractile activity in vitro was analyzed in corpus cavernosum tissue harvested from Wistar adult male rats. Tissue was vertically positioned in an isolated organ chamber under the conditions described below. Adult male Wistar rats, aged 1.5-2 months and 250-350 g in weight were sacrificed by cervical dislocation and the penis was removed from the base, yielding about 2 cm of isolated tissue. The penile tissue was dissected under a Zeiss STEMI DV4 stereoscopic magnifying glass. The tunica albuginea, which protects the cavernous and spongious corpuses, was gently removed. The cavernous bodies were removed from their central position, obtaining two fragments of equal length and diameter, which were then transferred to a Tyrode physiological solution properly oxygenated (mix of 95% O2 and 5% CO2), at 37° C. at pH 7.4.
The cavernous segments were tied with silk at their distal and proximal extremes and immersed in a Tyrode physiologic solution in the chambers. The distal part was tied to the connecting rod and the proximal portion was connected to the isometric contraction transducer (TRI 201/0-25 g) connected to an analogue/digital interphase Power Lab/4SP Ad instrument, making it possible to store and analyse the registered signals by the use of Chart 5 software. Essentially, the fragments were connected to a analogic tension transducer, which transferred its signal to a Power Lab-Letica interphase, which records, graphs and stores the information generated by the physiologic preparation in force/time (g/min scale).
Prior to assaying the polypeptides, the isolated corpus cavernosum samples were stabilized as follows. After placing the corpus cavernosum in the isolated organ chamber, a 0.5 g tension at a normal velocity (1:1 proportion) was applied for one hour. During this time the basal tension and oxygenation (10 ml/min) remained constant. After the first 20 minutes, the preparation was washed using Tyrode physiologic solution, the tension was fixed and the procedure was repeated every 20 minutes for a total of 4 times. In the final washing process, in Chart 5 control system, the recording speed was modified from 10× to 1×.
The ability of f40/7841 to induce smooth muscle relaxation was assayed in the corpus cavernosum assay described in Example 2 in the presence of 50 μM phenylephrine, a pharmacological agonist of the alpha-adrenergic receptor that induces smooth muscle contraction.
To determine the relaxation potential it was necessary to induce first a maximum contractile response (control), in the presence of a drug that activates α-adrenergic receptors, phenylephrine (50 μM). The obtained results of the experimental series are statistically analyzed with a statistical significance of P<0.05, and graphed with GraphPad Prim.V.3.02 software.

C2C12 myoblasts = assay: Intracellular calcium determination with Fluo-3AM (confocal microscopy); assay type: cell-based
Procedure: To confirm that the f40/7841 polypeptide had no effect on calcium flux, C2C12 myoblasts were treated with f40/7841 polypeptide and intracellular calcium levels were assayed using the calcium-sensitive fluorchrome, Fluo-3AM. For the intracellular Ca^2+ measurements, a Confocal LSM 510 Meta Confocal (Zeiss, Jena, Alemania) microscope with a lasing line excitation of 488 nm was used. C2C12 cells were seeded in 60 mm culture dishes (Nalge Nunc International, Rochester, N.Y.) and cultured for 48 hours at which time each plate contained about 250,000 cells. The cells were loaded with fluorochrome in concentration of 4 μM fluo-3AM (Sigma) in 0.5% Me2SO and 0.1% of pluronic acid F-127 for 30 minutes at 37° C.; washed three times with a modified Dulbecco's solution with 10% of fetal bovine serum and returned to the incubator.
The fluorescence of Fluo-3AM was stimulated at 488 nm and measured at 515 nm using a bandpass filter. The intracellular Ca^2+ was measured for 10 seconds, followed by the addition of 1 μM f40/7841 polypeptide and 1.5 mM of carbachol. The Ca^2+ changes were monitored for 2 minutes and the images were taken every 1.5 sec. The calcium ionophore 4-Br-A23187 (5 μM) followed by 10 mM EGTA were then added to obtain the maximum calcium excitation (Fmax) and the minimum fluorescence (Fmin), respectively. The intracellular [Ca^2+] of fluorescence (F) obtained by the used f40/7841 was calculated in the following way: intracellular [Ca^2+]=Kd*(*F−F*min)/(*F*max−*F*), assuming 450 nM. *Kd* for the fluo-3AM, the concentrations were calculated in cellular populations that contained at least 10 cells.

[2] = target: T1, alpha 7 nicotinic acetylcholine receptor (α7nAch) (Homo sapiens, UniProt P36544); assay: Whole-cell patch clamp of PC12 cells engineered to express the alpha 7 nicotinic acetylcholine receptor; assay type: cell-based
T1 construct: expressed in transfected cells; host or cells: PC12 cells
T1 sequence (P36544 23-502): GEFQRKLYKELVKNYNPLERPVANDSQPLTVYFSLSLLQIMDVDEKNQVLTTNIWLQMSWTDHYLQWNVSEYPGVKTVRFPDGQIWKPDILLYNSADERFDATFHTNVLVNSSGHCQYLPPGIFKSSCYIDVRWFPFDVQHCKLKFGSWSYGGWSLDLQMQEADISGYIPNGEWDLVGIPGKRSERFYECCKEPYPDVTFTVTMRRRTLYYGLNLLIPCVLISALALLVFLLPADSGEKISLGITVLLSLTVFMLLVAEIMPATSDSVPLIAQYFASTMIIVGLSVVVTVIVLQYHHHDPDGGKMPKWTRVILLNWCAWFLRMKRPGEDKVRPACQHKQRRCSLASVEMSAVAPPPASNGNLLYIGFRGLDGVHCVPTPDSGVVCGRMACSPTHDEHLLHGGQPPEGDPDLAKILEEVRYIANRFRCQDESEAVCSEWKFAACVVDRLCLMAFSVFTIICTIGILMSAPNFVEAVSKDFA
Procedure: The ability of the f40/7841 polypeptide to activate nicotinic acetylcholine receptors (nAChR) was assayed by whole cell patch clamp analysis of PC12 cells that had been engineered to express the alpha 7 nicotinic acetylcholine receptor (α7nAch). PC12 cells were transfected and cultured for 48 hours in an 80% of MEM, solution that contained (mM): 150 NaCl, 5.4 KCl, 2.0 CaCl2, 1.0 MgCl2, 10 glucose and 10 Hepes (7.4), 2 mM, and 10% of fetal bovine serum at 37° C. (Trifaro et al. In vitro Cell Dev. Biol. 1990). The cells were incubated for one hour at 22° C. before starting the experiments. The current changes were detected through a whole-cell patch-clamp system through a Warner PC-501^a amplifier and an inverted Olympus 9° 70 microscope. The membrane potential was adjusted to −60 mV; the current was recorded at intervals of 5 μs and it was filtered at 2 Kh using a computer connected to a recording system through an acquisition card Digidata 9.0 (Axon Instrument, Inc) and the software PC 9 (Axon Instrument, Inc). The stock solution for the assays with the peptides were kept refrigerated at 4° C. and the micropipettes contained an internal solution of: 140 mM NaCl, 5 mM KCl, 2 mM CaCl2, 1.5 mM MgCl2, and 10 mM HEPES, pH 7.4.
The purified f40/7841 polypeptide was purified according to the method in Example 1. 0.1 mg of the polypeptide was diluted in 100 μl. of sterile PBS at pH 7.4. […]

corpus cavernosum [3] = assay: In vitro corpus cavernosum assay for smooth muscle relaxation (isolated organ chamber, phenylephrine-contracted tissue); assay type: cell-based, Wistar adult male rats; details: phenylephrine 5 μM, atropine 1 μM, polypeptide 1 μgml (FIG. 13)

CN1[C@@H]2CC[C@H]1C[C@@H](OC(=O)C(CO)c1ccccc1)C2 (some centres unmarked) [atropine]
tonic response to phenylephrine in the presence of atropine (corpus cavernosum [1]; atropine 1 uM added after 40 minutes of phenylephrine (FIG. 13, upper tracing)): gradually reduced over time

O=C(O)CN(CCOCCOCCN(CC(=O)O)CC(=O)O)CC(=O)O [EGTA]
effect on ionophore-induced fluorescence spike (C2C12 myoblasts; 10 mM EGTA added after 4-Br-A23187 (FIG. 17)): abolished

CCCc1nn(C)c2c(=O)[nH]c(-c3cc(S(=O)(=O)N4CCN(C)CC4)ccc3OCC)nc12 [sildenafil citrate, 1-[4-ethoxy-3-(6,7-dihydro-1-methyl-7-oxo-3-propyl-1H-pyrazolo[4,3-d]pyrimidin-5-yl)phenylsulfonyl]-4-methylpiperazine]
contractile response after sildenafil citrate alone (corpus cavernosum [1]; 1 μM, after 50 μM phenylephrine, over a period of 25-30 minutes (FIG. 1)): slow decrease of the contractile response
concentration of sildenafil citrate alone required for a relaxation rate comparable to f40/7841 plus 1 μM sildenafil citrate (corpus cavernosum [1]; after 50 μM phenylephrine, typical value): 100 µM

CNC[C@H](O)c1cccc(O)c1 [phenylephrine]
contractile response of corpus cavernosum (corpus cavernosum [1]; phenylephrine 50 μM (FIG. 7, FIG. 9)): phasic contractile response followed by a steadily maintained tonic response; also recorded: quick phasic contraction

CNc1c(Br)cc2oc(C[C@H]3OC4(CC[C@H]3C)O[C@H]([C@H](C)C(=O)c3ccc[nH]3)[C@H](C)C[C@H]4C)nc2c1C(=O)O (some centres unmarked) [4-Br-A23187]
Fluo-3AM fluorescence (calcium) after ionophore (C2C12 myoblasts; 4-Br-A23187 5 μM, positive control (FIG. 17)): sharp spike of fluorescence

C[N+](C)(C)CCOC(N)=O [carbachol]
potassium current ([2]; 10 μM carbachol, positive control, membrane potential −60 mV (FIG. 15)): 10 pA

B1: f40/7841 (protein)
chain: GDSLDPAEFACADDIDQAELLKNNDICLQCEDLHKEGLVFSLCKTNCFSTEYFQHCVKDLEEAKKEPPE
modifications: also: blocked N-terminus, not given here
ability to induce relaxation, atropine added prior to phenylephrine (corpus cavernosum [1]; 1 μM atropine, then phenylephrine 50 μM, polypeptide 2 μg/ml after twenty minutes (FIG. 14)): attenuated
effect on tonic contraction (relaxation) (corpus cavernosum [1]; 2 μg/ml added after 20 minutes of 50 μM phenylephrine (FIG. 10)): rapid decrease in tonic contraction
relaxation of contracted tissue in the presence of L-NAME (nitric oxide synthase inhibitor) (corpus cavernosum [1]; phenylephrine, then L-NAME 10 mM, then polypeptide 0.02, 0.2 or 2 μg/ml (FIG. 11, FIG. 12), listed as f40/7481): did not induce a decrease in contraction; also recorded: abolished
contractile response on co-addition with sildenafil citrate, compared to sildenafil citrate alone (corpus cavernosum [1]; polypeptide 2 μg/ml plus 1 μM sildenafil citrate, after 50 μM phenylephrine (FIG. 1)): significant decrease in the contractile response
rapid potassium current ([2]; 0.1 μg/ml polypeptide, membrane potential −60 mV (FIG. 16, in the presence of carbachol)): 500 pA
ability to induce relaxation in the presence of atropine (corpus cavernosum [3]): attenuated
calcium flux (intracellular Ca2+, Fluo-3AM fluorescence) (C2C12 myoblasts; 1 μM polypeptide and 1.5 mM carbachol, monitored for 2 minutes (FIG. 17)): did not induce calcium flux
